Experimental data from patent US7390625B2, “Apoptosis-associated protein and use thereof” (Takeda Pharmaceutical Company Limited, priority 2002, dated 2008).
Peptide text beside a SMILES is read from it. * marks the point of attachment. Cbz = O=C(OCc1ccccc1)*; CH2F = FC*

System: PAE-ABP1 cells
Assay: Cell death assay in PAE-ABP1 cells after removal of tetracycline
Format: cell-based, porcine
Details: 50 μM, 18 hours after tetracycline removal
Experimental: FIGS. 7A-B show the induction of cell death by ABP1 in PAE-ABP1 cells. FIG. 7A: Phase contrast photomicrographs at 36 hours after cultivation of PAE-ABP1 cells in the presence (+) and absence (−) of tetracycline (Tet) are shown. FIG. 7B: The ratio (%) of cell death from cultivation in the presence of tetracycline (O hour) and at 24 hours and 48 hours after removal of tetracycline.
FIGS. 9A-B show the caspase dependency of cell death by ABP1. FIG. 9A: PAE-ABP1 cells were cultivated in the absence of tetracycline, and caspase-3 activity was measured after 0, 12, 24, and 36 hours. The results are shown as relative values with the value in the presence of tetracycline taken as 1. FIG. 9B: PAE-ABP1 cells were treated with zVAD-fmk (50 μM) simultaneously with removal of tetracycline, and the ratio (%) of dead cells was quantified. Cell death assay was conducted at 18 hours after removal of tetracycline. […]
When these cells were cultured in the absence of tetracycline, cell death was induced with the expression of the ABP1 protein, as in the transient expression of the ABP1 protein in HeLa cells (FIG. 7A). The ratio of dead cells to all cells (the ratio of cells showing a morphological sign of cell death to all cells was determined under a microscope; the results were shown as the mean for three visual fields) was determined to be about 55% at 48 hours after removal of tetracycline (FIG. 7B).

SMILES: COC(=O)C[C@H](NC(=O)[C@H](C)NC(=O)[C@@H](NC(=O)OCc1ccccc1)C(C)C)C(=O)CF [zVAD-fmk, reference compound] (Cbz-Val-Ala-Asp(OMe)-CH2F)
- suppression of cell death caused by ABP1: almost completely suppressed
